According to patent US10947188B2, “Small molecule ferroptosis inducers” (THE TRUSTEES OF COLUMBIA UNIVERSITY IN THE CITY OF NEW YORK, priority 2016, dated 2021):

Legend:
HT-1080 cells = experiment: Lethality of commercially available CIL41/70 structural analogs; type: cell-based; conditions: Homo sapiens, tested once in technical triplicates
Protocol: 1,000 cells per 36 μl were seeded in each well in 384-well plates. Lethal compounds were dissolved, and a twofold, 12-point dilution series was prepared in DMSO. Compound solutions were further diluted with media at 1:25, and 4 μl per well of the diluted solutions was added to cell cultures immediately after cells were seeded. […] When other cell-death-modulating compounds (100 nM sodium selenite, 1 μM cerivastatin, 100 μg/mL mevalonic acid) were used in cotreatments, they were supplemented to cell culture for 24 h before lethal compounds were added to cell culture, after which cells were further incubated for 24 h at 37° C. under 5% CO2. On the day of the viability measurement, we added 10 μl per well of 50% Alamar Blue diluted in media (Life Technologies) and further incubated the cells at 37° C. for 6 h. Fluorescence intensity (excitation/emission: 530/590) was measured with a Victor 3 plate reader (PerkinElmer), and the normalized viability was calculated as VL=(IL−I0)/(IV−I0), where VL, I0, IV, and IL are the normalized viability and the raw fluorescence intensities from the wells containing media, cells treated with a vehicle (negative control), and cells with the lethal compound (L), respectively. When the effect of a chemical modulator (M) on L was calculated, we instead used the equation VL|M=(IM,L−I0)/(IM,V−I0), where VL|M, IM,L and IM,V are the normalized viability, and fluorescence intensity from cells treated with […], respectively. The viability was typically measured in biological triplicate unless otherwise specified. A representative dose-response curve, the mean and standard error of normalized viability from one replicate were plotted. HT-1080 viability after modulator treatments corresponding to FIG. 3C and FIGS. 5E-5F is available in FIGS. 19A-19C.
Their lethality was tested once in HT-1080 cells in technical triplicates.

BJeLR = experiment: Modulatory profiling: Alamar Blue viability, lethal compound cotreated with death modulator (EC50, AUC); type: cell-based, human; parameters: AUC, modulator BJ.Gd3+ / AUC, modulator BJ.LNAME / AUC, modulator BJ.Lmin / AUC, modulator BJ.3MA / AUC, modulator BJ.ALLN / AUC, modulator BJ.Boc D / AUC, modulator BJ.CHX / AUC, modulator BJ.Co2+ / AUC, modulator BJ.Nec-1 / AUC, modulator BJ.Pepstatin / AUC, modulator BJ.TLCK / AUC, modulator BJ.atoc / AUC, modulator BJ.trolox / AUC, modulator BJ.zVAD: unit not given beside the values; conditions: BJeLR cells, modulatory profile value (AUC)
HT-1080 = experiment: as above; type: cell-based; parameters: AUC, modulator HT.3MA / AUC, modulator HT.ALLN / AUC HT.ATA / AUC HT.ActD / AUC HT.BHA / AUC HT.BHT / AUC HT.BocD / AUC HT.CHX / AUC HT.Co2+ / AUC HT.DPQ / AUC HT.EGTA / AUC HT.Lmim / AUC HT.NAD+ / AUC HT.Nec-1 / AUC HT.SP600125 / AUC HT.TLCK / AUC HT.U0126: unit not given beside the values

COc1ccccc1C/C(N)=N/OC(=O)Cc1ccc(Cl)cc1 [CB12] gave an EC50 (HT-1080 cells) of over 20 µg/mL.
Work on COc1ccccc1C/C(N)=N/OC(=O)COc1cccc2ccccc12 [CB13] yielded an EC50 (HT-1080 cells) of over 20 µg/mL.
For CCC(C(NNC(=O)c1ccc(C(F)(F)F)cc1)c1ccc(C(F)(F)F)cc1)[N+](=O)O (centres unmarked) [CIL88], the “AUC, modulator BJ.3MA” value (BJeLR; lethal compound cotreated with modulator 3MA) was 0.03093, the “AUC, modulator BJ.ALLN” value (BJeLR; lethal compound cotreated with modulator ALLN) was −0.1424 and the “AUC, modulator BJ.Boc D” value (BJeLR; lethal compound cotreated with modulator Boc D) was −0.01445. The “AUC, modulator BJ.CHX” value (BJeLR; lethal compound cotreated with modulator CHX) was 0.2354, the “AUC, modulator BJ.Co2+” value (BJeLR; lethal compound cotreated with modulator Co2+) was 0.05379 and the “AUC, modulator BJ.DPQ” value (BJeLR; lethal compound cotreated with modulator DPQ) was −0.03608. The “AUC, modulator BJ.Gd3+” value (BJeLR; lethal compound cotreated with modulator Gd3+) was −0.03652, the “AUC, modulator BJ.LNAME” value (BJeLR; lethal compound cotreated with modulator LNAME) was 0.0201 and the “AUC, modulator BJ.Lmin/NAD+” value (BJeLR; lethal compound cotreated with modulator Lmin/NAD+) was 0.03399. The “AUC, modulator BJ.Lmin” value (BJeLR; lethal compound cotreated with modulator Lmin) was −0.01241, the “AUC, modulator BJ.NAD+” value (BJeLR; lethal compound cotreated with modulator NAD+) was −0.03559 and the “AUC, modulator BJ.NMMA” value (BJeLR; lethal compound cotreated with modulator NMMA) was −0.01217. The “AUC, modulator BJ.Nec-1” value (BJeLR; lethal compound cotreated with modulator Nec-1) was −0.03649, the “AUC, modulator BJ.Pepstatin” value (BJeLR; lethal compound cotreated with modulator Pepstatin) was −0.06126 and the “AUC, modulator BJ.TLCK” value (BJeLR; lethal compound cotreated with modulator TLCK) was 0.0209. For the same compound, the “AUC HT.ATA” value (HT-1080; HT-1080, modulator ATA) was 0.08122, the “AUC HT.ActD” value (HT-1080; HT-1080, modulator ActD) was −0.03102 and the “AUC HT.BHA” value (HT-1080; HT-1080, modulator BHA) was 0.007109. For the same compound, the “AUC HT.BHT” value (HT-1080; HT-1080, modulator BHT) was −0.09988, the “AUC HT.BocD” value (HT-1080; HT-1080, modulator BocD) was 0.02037 and the “AUC HT.CHX” value (HT-1080; HT-1080, modulator CHX) was 0.04478. For the same compound, the “AUC HT.Co2+” value (HT-1080; HT-1080, modulator Co2+) was 0.01652, the “AUC HT.CspA” value (HT-1080; HT-1080, modulator CspA) was −0.05842 and the “AUC HT.DPQ” value (HT-1080; HT-1080, modulator DPQ) was −0.01431. The “AUC HT.EGTA” value (HT-1080; HT-1080, modulator EGTA) was 0.01878, the “AUC HT.Gd3+” value (HT-1080; HT-1080, modulator Gd3+) was −0.03651 and the “AUC HT.LNAME” value (HT-1080; HT-1080, modulator LNAME) was 0.02199. For the same compound, the “AUC HT.Lmim” value (HT-1080; HT-1080, modulator Lmim) was 0.01907, the “AUC HT.NAD+” value (HT-1080; HT-1080, modulator NAD+) was 0.007478 and the “AUC HT.NMMA” value (HT-1080; HT-1080, modulator NMMA) was −0.000615. For the same compound, the “HT.atoc (AUC)” value (HT-1080; HT-1080, modulator atoc) was 0.07162, the “HT.bCarotene (AUC)” value (HT-1080; HT-1080, modulator bCarotene) was 0.02318 and the “HT.deferox (AUC)” value (HT-1080; HT-1080, modulator deferox) was 0.0616. The “HT.digoxin (AUC)” value (HT-1080; HT-1080, modulator digoxin) was 0.05526, the “HT.trolox (AUC)” value (HT-1080; HT-1080, modulator trolox) was −0.01577 and the “HT.zVAD (AUC)” value (HT-1080; HT-1080, modulator zVAD) was 0.04371.
